For one experiment, the system named is Human Jurkat cells. Kind of experiment: Velcade-induced apoptosis of Jurkat cells, CellTiter-Glo viability. The class given is cell-based. As for the experimental part:
Human Jurkat cells were seeded in 96-well plates (20000 cells per well). Different concentrations of the compounds were added one hour prior to Velcade treatment, followed by the addition of 50 nM Velcade. After incubation for 24 hours, cell viability was measured by CellTiter-Glo Luminescent Cell Viability Assay.
The rates of cell death were measured in triplicate or quadruplicate in a 96-well or 384-well plate by using SYTOX Green Nucleic Acid Stain (Invitrogen) or ToxiLight Non-destructive Cytotoxicity BioAssay Kit (Lonza). The intensity of luminescence was determined in an EnSpire Multimode Plate Reader (PerkinElmer). Cytotoxicity is expressed as percentages of cell death per well after deducting the background signal in non-induced cells and compared to that of the maximal cell death with 100% Lysis Reagent. The rates of cell viability were determined by using CellTiter-Glo Luminescent Cell Viability Assay (Promega) following the manufacturer's protocol and the results are expressed as percentages of luminescence intensity per well after deducting the background signal in blank well and compared to that of the viability in the non-treated wells. Concentration of drugs used for inducing or inhibiting cell death, mTNFα: 1 ng/ml; 5Z-7-Oxozeaenol: 0.5 μM; Velcade: 50 nM; Apt-1/ICCB-19/ICCB-19i/Nec-1s: 10 μM.

The target of a further experiment is T1, TRADD-N (Homo sapiens, UniProt Q15628).
T1 construct: expression constructs encoding Flag-TRADD-N(1-179) and HA-TRADD-C(180-312); His (N); made in house
T1 sequence (Q15628 1-179): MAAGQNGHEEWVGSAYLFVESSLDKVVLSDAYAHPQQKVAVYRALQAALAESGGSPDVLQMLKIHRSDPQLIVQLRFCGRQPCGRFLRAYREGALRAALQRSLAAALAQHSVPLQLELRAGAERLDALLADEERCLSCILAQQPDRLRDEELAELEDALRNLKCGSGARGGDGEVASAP
Briefly: BIAcore SPR binding to TRADD-N. The following applies: 25C, steady-state affinity. The protocol: A series of concentrations of ICCB-19 (ranging from 0.3125 to 10 μM) was used to measure the binding kinetics, with TRADD-N immobilized on the CM5 chip.
The binding affinity between ICCB-19/Apt-1 and TRADD-N was analyzed at 25C on a BIAcore T200 machine with CM5 chips (GE Healthcare). PBS-P buffer (GE Healthcare) was used for all measurements. For surface plasmon resonance (SPR) measurements, Flag-tagged TRADD-N protein was purified from HEK293T cells by anti-Flag affinity gel and eluted by 3×Flag peptide. The protein was further purified by size exclusion chromatograph on a Superdex 75 column (GE Healthcare) in a buffer containing 20 mM imidazole (pH 6.6), 200 mM NaCl, 20 mM DTT. The protein was dialyzed into PBS and diluted to a final concentration of 40 μg/ml in NaOAc buffer (pH 4.5) before immobilization on CM5 chip. ˜5000 response units of protein were immobilized on the chip with a running buffer composed of PBS-P. Reference was used to normalize the response unit (RU) values of protein. A series of compound concentrations ranging from 0.3125 to 10 μM was tested at […] flow rate. The contact time is 100 s and dissociation time is 120 s. When the data collection was finished in each cycle, the sensor surface was regenerated with PBS-P buffer. DMSO solvent correction was performed following the BIAcore T200 Guide.
(In general: Surface plasmon resonance follows binding to a sensor surface in real time, without labels.)

A further experiment concerns Beclin 1. Briefly: K63-linkage specific ubiquitination of Beclin 1 in MEFs. Type of experiment: cell-based, mouse. The following applies: 6 h. The text has this:
Anti-K63-linkage specific polyubiquitin antibody was used to conduct secondary immunoprecipitation. Samples were then immunoblotted with anti-Beclin 1 antibody to measure the K63-linkage specific ubiquitination of Beclin 1.

A further experiment addresses T2, TRADD-N and TRADD-C (Homo sapiens, UniProt Q15628).
T2 construct: expression constructs encoding Flag-TRADD-N(1-179) and HA-TRADD-C(180-312); expressed in transfected cells; host or cells: HEK293T
Kind of experiment: NanoBiT protein-protein interaction assay TRADD-N / TRADD-C. The following applies: 4 h. Type of experiment: cell-based. As for the experimental part: Constructs were made encoding LgBiT and SmBiT fused to the N and C termini of TRADD-N and TRADD-C, respectively. HEK293T cells were transfected with these two plasmids for 24 h and then treated with indicated compounds for 4 h. The luminescence indicating the interaction of TRADD-N and TRADD-C was measured using Nano-Glo Live Cell Reagent. Mean ±s.d. from quintuplicates (n=5).
The Nano-Glo Live Cell assay kit (Promega) was used as follows: HEK293T cells were seeded at 7.5×10^3 cells per well in a white, clear-bottom 96-well plate 12 h before transfection (10 ng LgBiT-fused construct and 10 ng SmBiT-fused construct). After 24 h incubation, medium was removed and replaced with 100 μl Opti-MEM medium for 1 h at 37C. The Nano-Glo reagent was prepared as per manufacturer's instructions and added to each well immediately before the luminescence reading was taken. Luminescence was measured at 1 min intervals for 10 min on a plate reader and reported as relative light units (RLU). For quantitative comparison of LgBiT-SmBiT interactions, the peak values at the 2-3 min time point were used. Concentration of compounds used in NanoBiT assay: 10 μM (Apt-1, ICCB-19 or ICCB-19i).

Experiment [1] deals with Htt-103Q, α-synuclein and tau expressing cells. Kind of experiment: Misfolded protein accumulation and cell death in cell models (Htt-103Q, α-synuclein, tau). Type of experiment: cell-based. The following applies: 10 μM. As for the experimental part: Nuclei were labeled with DAPI. The amount of Htt-Q103-EGFP aggregates per mm^2 was quantified using ImageJ. Scale bar is 100 μm. Cell viability was measured by CellTiter-Glo assay. Survival rate is compared with vehicle-treated cells. Mean ±s.d. from technical triplicates (n=3), representative of 3 independent experiments. One-way ANOVA, post hoc Dunnett's tests. ***P<0.001; n.s. not significant, (P=0.8556, 0.9195, 0.8613, 0.5687, 0.5304, 0.9998, 0.6029, 0.2821 (left to right)).
RFP-α-Synuclein was quantified by Fluorescence/Cell (RLU) by ImageJ.
Mean ±s.d. from technical triplicates (n=3), representative of 3 independent experiments. Two-way ANOVA, post hoc Bonferroni's tests. ***P<0.001; *P=0.0262, 0.0367 (left to right).
Mean ±s.d. from technical triplicates (n=3), representative of 3 independent experiments. Two-way ANOVA, post hoc Bonferroni's tests.

The mark [2] stands for this setting: FIG. 5b, Velcade 50 nM, 24 h, read-out: IC50 of inhibition of Velcade-induced apoptosis.
Where [3] appears, read: Table 3, 50 nM Velcade, 24 hours, read-out: Jurkat Velcade IC50/μM.

Read-outs that look alike come from different tables or passages of the source.

For the compound `CN1CCN=C1SC(C(=O)NC1CCCCCC1)c1ccccc1` (stereo not shown) [Compound 30], the IC50 in the experiment on Human Jurkat cells (setting [2]) was ~1 µM; in the experiment on Human Jurkat cells (setting [3]), 0.799 µM. Also, the Kd on TRADD-N turned out to be 2170 nM. Also, the “Beclin 1 K63 ubiquitination” value in the experiment with Beclin 1 was “dramatically enhanced”. Also, the “NanoBit interaction signal between LgBiT-TRADD-N and TRADD-C-SmBiT” value on TRADD-N and TRADD-C is “dose-dependently reduced”. Further, the “protein accumulation and cell death with Htt-103Q, α-synuclein, tau” value in experiment [1] is “reduced protein accumulation and cell death”.

For the compound `O=C(CSC1=NCCN1)NC1CCCCCC1` [ICCB-19], the IC50 was ~1 µM in the experiment with Human Jurkat cells (setting [2]); 1.1 µM with Human Jurkat cells (Table 1, 50 nM Velcade, 24 hours, read-out: Apoptosis of Jurkat cells induced by Velcade (IC50 μM)); 1.12 µM in the experiment on Human Jurkat cells (setting [3]). At TRADD-N, this compound registered a Kd of 2300 nM. Also, the “Beclin 1 K63 ubiquitination” value with Beclin 1 was “dramatically enhanced”. Moreover, the “NanoBit interaction signal between LgBiT-TRADD-N and TRADD-C-SmBiT” value on TRADD-N and TRADD-C was “dose-dependently reduced”. The “protein accumulation and cell death with Htt-103Q, α-synuclein, tau” value in experiment [1] is “reduced protein accumulation and cell death”.

One may read the Kd as the equilibrium constant for the complex coming apart.

Source of the values: patent US20230219898A1, “COMPOUNDS AND METHODS FOR BLOCKING APOPTOSIS AND INDUCING AUTOPHAGY” (President and Fellows of Harvard College, priority 2020, published 2023).
